Consider 15 molecules from US11401271B2, “Fused heterocyclic compound, pyrazole-ring-containing fused heterocyclic compound, agricultural composition containing thereof, and method of using the composition” (SOUTH CHINA AGRICULTURAL UNIVERSITY, priority 2017, dated 2022).

Holding throughout (format): in vivo
One data set concerns Solenopsis invicta. The experiment in a line: whole plant or invertebrate. The conditions noted are these: water test tube poison-feeding; for mortality at 100 ppm: Solenopsis invicta. The method in brief:
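Fire ants fed compound by water test-tube poison-feeding at 100 ppm in aqueous 0.05% Tween-80/5% honey (from 10 g/L DMSO stock), kept at 25 °C. Live and dead ants counted at 24 and 72 h; mortality (%) calculated relative to live ants in the untreated control.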

The subject of another data set is Apis cernan. Kind of data set: Toxicity test on adult worker bees of Apis cernan, small beaker method. The following applies: 500 ppm, 48 hours. The method in brief:
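Same-size adult Apis cernan workers, collected the test morning, exposed in groups of 15 to cotton soaked with 500 ppm test liquid (small beaker method). Kept sealed in a dark climate box; live and dead bees counted after 48 h.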

Another data set concerns Spodoptera exigua. The experiment in a line: whole plant or invertebrate. The following applies: for mortality at 500 ppm: Spodoptera exigua, 24 h, read-out: Spodoptera exigua Mortality (%) 500 ppm. The method in brief:
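Cabbage leaf discs dipped 5 s in 500 ppm compound (0.05% Tween-80 aqueous), air-dried, fed to about 35 2nd-instar larvae at 28° C, three replicates. Deaths counted at 24 h; mortality corrected against Tween-80 control.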

The next data set concerns Bombyx mori L. Kind of data set: Toxicity test on 2nd-instar larvae of Bombyx mori L., leaf immersion feeding method. The conditions noted are these: 1000 ppm, 24 hours. The method in brief: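 Second-instar silkworm larvae (~35 per vessel, 3 replicates) fed mulberry leaves dipped 5 s in 1000 ppm compound (0.05% Tween-80; DMSO stock diluted), held at 25 °C. Deaths counted after 24 hours; mortality % corrected against Tween-80 control survivors.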

Another data set relates to Aphis craccivora. Kind of data set: whole plant or invertebrate. The conditions noted are these: for mortality at 500 ppm: Aphis craccivora, 24 h, read-out: Aphis craccivora Mortality (%) 500 ppm. The method in brief: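 Wingless adults feeding on bean sprouts were dipped with the sprouts for 5 s in 500 ppm compound in aqueous 0.05% Tween-80, air-dried, then held at 23° C. Dead aphids counted after 24 h, triplicate, with 0.05% Tween-80 as control. Mortality (%) = (control live − treated live)/control live × 100.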

For another data set, the system named is Plutella xylostella. Kind of data set: whole plant or invertebrate. The following applies: for mortality at 500 ppm: Plutella xylostella, read-out: Plutella xylostella Mortality (%) 500 ppm. Put shortly:
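Cabbage leaf discs dipped 5 s in compound at 500 ppm (0.05% Tween-80 aqueous), air-dried, fed to about 35 2nd-instar larvae at 28° C., triplicate. Dead larvae counted after 24 h; mortality (%) corrected against Tween-80 control.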

[1] abbreviates: 24 h, read-out: Solenopsis invicta Mortality (%) 100 ppm 24 h, 100 ppm, 24 h.
Where [2] appears, read: 72 h, read-out: Solenopsis invicta Mortality (%) 100 ppm 72 h, 100 ppm, 72 h.

Read-outs that look alike come from different tables or passages of the source.

As for `CNC(=O)C1(CC(=O)OC)Nc2c([S+]([O-])C(F)(F)F)c(C#N)nn2-c2c(Cl)cc(C(F)(F)F)cc21` (stereo not drawn) [Compound C35], the mortality (usually the percentage killed) at 100 ppm with Solenopsis invicta (setting [1]) was determined as 38%; in the data set on Solenopsis invicta (setting [2]), 100%. Further, in the data set with Apis cernan, the “Toxicity determination Apis cernan Mortality (%)” value came to 4%. Further, the mortality at 500 ppm in the data set on Spodoptera exigua, in the data set on Aphis craccivora and in the data set on Plutella xylostella was 100% in each case. Besides, the “Toxicity determination Bombyx mori L. Mortality (%)” value with Bombyx mori L. amounted to 4%.
As to `Nc1cc2n(n1)-c1cnccc1C(F)(CC(F)(F)F)N2` (stereo not drawn) [Compound A36], the mortality at 100 ppm turned out to be 44% with Solenopsis invicta (setting [1]) and 100% with Solenopsis invicta (setting [2]). Besides, the “Toxicity determination Apis cernan Mortality (%)” value in the data set on Apis cernan was 0%. In addition, the mortality at 500 ppm with Spodoptera exigua, with Aphis craccivora and with Plutella xylostella was 100% each time. Further, the “Toxicity determination Bombyx mori L. Mortality (%)” value in the data set with Bombyx mori L. worked out at 3%.
For the molecule `C=CC1(CCl)Nc2c(-c3cc(C)oc3C)c(C#N)nn2-c2c(Cl)cc(C(F)(F)F)cc21` (stereo not drawn) [Compound C10], the mortality at 100 ppm with Solenopsis invicta (setting [1]) stood at 27%; in the data set on Solenopsis invicta (setting [2]), 100%. Also, the “Toxicity determination Apis cernan Mortality (%)” value in the data set with Apis cernan was determined as 9%. For the same molecule, the results for the mortality at 500 ppm in the data set on Spodoptera exigua, in the data set with Aphis craccivora and with Plutella xylostella were 85%, 100% and 100%, respectively. Moreover, in the data set on Bombyx mori L., the “Toxicity determination Bombyx mori L. Mortality (%)” value was 10%.
Turning to `CC1(C)Nc2c([N+](=O)[O-])c(C#N)nn2-c2ccccc21` [Compound A21], the values for the mortality at 100 ppm in the data set with Solenopsis invicta (setting [1]) and in the data set with Solenopsis invicta (setting [2]) were 24% and 100%, respectively. The “Toxicity determination Apis cernan Mortality (%)” value in the data set with Apis cernan was 6%. In addition, the mortality at 500 ppm in the data set with Spodoptera exigua, in the data set with Aphis craccivora and with Plutella xylostella was 100% each time. Also, the “Toxicity determination Bombyx mori L. Mortality (%)” value with Bombyx mori L. is 0%.
With `C[S+]([O-])c1nn2c(c1C#N)NC(F)(C(F)(F)F)c1ccccc1-2` (stereo not drawn) [Compound A26], the “Solenopsis invicta Mortality (%) 100 ppm 24 h” value in the data set on Solenopsis invicta (100 ppm, 24 h) is given as 45%. Besides, in the data set with Solenopsis invicta (100 ppm, 72 h), the “Solenopsis invicta Mortality (%) 100 ppm 72 h” value was determined as 100%. Also, in the data set on Apis cernan, the “Toxicity determination Apis cernan Mortality (%)” value turned out to be 10%. In addition, in the data set with Spodoptera exigua (500 ppm, 2nd-instar larvae, leaf immersion feeding, 24 hours), the “Spodoptera exigua Mortality (%) 500 ppm” value amounted to 100%. In addition, the “Toxicity determination Bombyx mori L. Mortality (%)” value in the data set on Bombyx mori L. was 7%. Moreover, the “Aphis craccivora Mortality (%) 500 ppm” value in the data set on Aphis craccivora (500 ppm, wingless adults, impregnation method, 24 hours) is given as 100%. Moreover, the “Plutella xylostella Mortality (%) 500 ppm” value with Plutella xylostella (500 ppm, 2nd-instar larvae, leaf immersion feeding) turned out to be 100%.
As to `N#Cc1cnn2c1NC(F)(CN)c1ccc(Cl)cc1-2` (stereo not drawn) [Compound A22], the mortality at 100 ppm is 30% with Solenopsis invicta (setting [1]) and 97% in the data set on Solenopsis invicta (setting [2]). In addition, the “Toxicity determination Apis cernan Mortality (%)” value in the data set with Apis cernan came out at 3%. Also, the mortality at 500 ppm with Spodoptera exigua is 100%; with Aphis craccivora, 100%; in the data set with Plutella xylostella it was 96%. Besides, the “Toxicity determination Bombyx mori L. Mortality (%)” value with Bombyx mori L. turned out to be 0%.
In the case of `C=CC1(C=C)Nc2c(-c3cc(C)sc3C)c(CC)nn2-c2c(Cl)cc(C(F)(F)F)cc21` [Compound C62], the mortality at 100 ppm with Solenopsis invicta (setting [1]) is 27%; in the data set with Solenopsis invicta (setting [2]) it was 100%. Also, the “Toxicity determination Apis cernan Mortality (%)” value in the data set on Apis cernan is given as 11%. Also, the mortality at 500 ppm was found to be 85% with Spodoptera exigua, 97% with Aphis craccivora and 80% in the data set on Plutella xylostella. Moreover, the “Toxicity determination Bombyx mori L. Mortality (%)” value in the data set with Bombyx mori L. is 10%.
For `N#CCC1(C(=O)O)Nc2c([S+]([O-])C(F)(F)F)c(C#N)nn2-c2c(Cl)cc(C(F)(F)F)cc21` (stereo not drawn) [Compound C30], the mortality at 100 ppm with Solenopsis invicta (setting [1]) amounted to 24%; with Solenopsis invicta (setting [2]) it was 100%. Besides, the “Toxicity determination Apis cernan Mortality (%)” value in the data set with Apis cernan amounted to 0%. For the same molecule, the mortality at 500 ppm with Spodoptera exigua was found to be 90%; in the data set with Aphis craccivora it was 92%; with Plutella xylostella, 100%. Besides, the “Toxicity determination Bombyx mori L. Mortality (%)” value in the data set on Bombyx mori L. was found to be 0%.
Turning to `CC1(C)Nc2c(C#N)c(SCc3ccccc3)nn2-c2cnc(F)nc21` [Compound A46], the results for the mortality at 100 ppm in the data set with Solenopsis invicta (setting [1]) and in the data set on Solenopsis invicta (setting [2]) were 20% and 87%, respectively. For the same molecule, the “Toxicity determination Apis cernan Mortality (%)” value with Apis cernan came out at 2%. Also, the mortality at 500 ppm with Spodoptera exigua amounted to 100%; in the data set with Aphis craccivora it was 100%; in the data set with Plutella xylostella, 86%. In addition, the “Toxicity determination Bombyx mori L. Mortality (%)” value in the data set with Bombyx mori L. worked out at 7%.
As to `CNC(=O)Nc1c(C#N)nn2c1NC(C)(C)c1ccccc1-2` [Compound A19], the mortality at 100 ppm in the data set on Solenopsis invicta (setting [1]) is 20%; in the data set with Solenopsis invicta (setting [2]), 100%. In addition, the “Toxicity determination Apis cernan Mortality (%)” value in the data set with Apis cernan came to 5%. Also, the mortality at 500 ppm in the data set on Spodoptera exigua, in the data set with Aphis craccivora and in the data set with Plutella xylostella was 100% each time. For the same molecule, in the data set on Bombyx mori L., the “Toxicity determination Bombyx mori L. Mortality (%)” value stood at 7%.
On to `C=CC1(CCl)Nc2c([S+](C)[O-])c(C#N)nn2-c2c(Cl)cc(C(F)(F)F)cc21` (stereo not drawn) [Compound C18], for which the mortality at 100 ppm with Solenopsis invicta (setting [1]) is 20%; with Solenopsis invicta (setting [2]), 70%. The “Toxicity determination Apis cernan Mortality (%)” value with Apis cernan was found to be 5%. For the same molecule, the mortality at 500 ppm in the data set on Spodoptera exigua worked out at 86%; with Aphis craccivora, 98%; in the data set with Plutella xylostella, 90%. The “Toxicity determination Bombyx mori L. Mortality (%)” value with Bombyx mori L. turned out to be 6%.
Turning to `C=CC1(CCl)Nc2cc(C#N)nn2-c2c(Cl)cc(C(F)(F)F)cc21` (stereo not drawn) [Compound C1, 9-chloro-7-trifluoromethylphenyl-5-chloromethyl-5-vinyl-4,5-dihydropyrrole[1,5-α]quinazoline-2-cyano], the figures for the mortality at 100 ppm in the data set on Solenopsis invicta (setting [1]) and in the data set with Solenopsis invicta (setting [2]) were 20% and 100%, respectively. The “Toxicity determination Apis cernan Mortality (%)” value in the data set on Apis cernan amounted to 7%. Moreover, the figures for the mortality at 500 ppm in the data set on Spodoptera exigua, in the data set on Aphis craccivora and in the data set on Plutella xylostella were 100%, 100% and 89%, respectively. In addition, the “Toxicity determination Bombyx mori L. Mortality (%)” value in the data set with Bombyx mori L. amounted to 7%.
For `N#CCC1(CO)Nc2c([S+]([O-])C(F)(F)F)c(C#N)nn2-c2c(Cl)cc(C(F)(F)F)cc21` (stereo not drawn) [Compound C24], the figures for the mortality at 100 ppm in the data set on Solenopsis invicta (setting [1]) and in the data set with Solenopsis invicta (setting [2]) were 36% and 100%, respectively. Moreover, the “Toxicity determination Apis cernan Mortality (%)” value in the data set with Apis cernan turned out to be 10%. Moreover, the mortality at 500 ppm in the data set on Spodoptera exigua, in the data set with Aphis craccivora and in the data set with Plutella xylostella was 100% throughout. For the same molecule, the “Toxicity determination Bombyx mori L. Mortality (%)” value in the data set with Bombyx mori L. is listed as 11%.
Regarding `CC(=O)c1nn2c(c1[S+](C)[O-])NC(CC#N)(C(=O)O)c1cc(C(F)(F)F)cc(Cl)c1-2` (stereo not drawn) [Compound C43], the mortality at 100 ppm in the data set with Solenopsis invicta (setting [1]) is 18%; in the data set with Solenopsis invicta (setting [2]), 80%. Besides, in the data set with Apis cernan, the “Toxicity determination Apis cernan Mortality (%)” value turned out to be 4%. The values for the mortality at 500 ppm with Spodoptera exigua, in the data set on Aphis craccivora and in the data set with Plutella xylostella were 89%, 95% and 86%, respectively. In addition, in the data set with Bombyx mori L., the “Toxicity determination Bombyx mori L. Mortality (%)” value is 0%.
Take `Cc1cc(-c2c(C#N)nn3c2NC(C(O)CO)c2cc(C(F)(F)F)cc(Cl)c2-3)c(C)o1` (stereo not drawn) [Compound C52]: the mortality at 100 ppm in the data set with Solenopsis invicta (setting [1]) was 22%; with Solenopsis invicta (setting [2]), 90%. Besides, the “Toxicity determination Apis cernan Mortality (%)” value in the data set on Apis cernan is on record as 7%. Besides, the mortality at 500 ppm with Spodoptera exigua was 91%; with Aphis craccivora, 100%; in the data set with Plutella xylostella, 90%. Moreover, the “Toxicity determination Bombyx mori L. Mortality (%)” value with Bombyx mori L. is reported as 10%.
